According to US20080279907A1, “Antimicrobial medical devices and methods for making and using same” (Ash Access Technology, Inc., priority 2007, published 2008):
“And” between values parts separate entries of the source, which are not always exact repeats. Identical values can stand only once.

Legend:
Assay type in all cases: physicochemical
[1] = Leaching of methylene blue from treated catheter into normal saline replaced monthly; conditions: catheter treated with only methylene blue
Excerpt: When the saline is replaced with fresh saline, exactly the same intense blue color developed in the fresh saline solution during the second month. This process of replacing the saline solution can be continued, that is, replacing the saline solution with fresh solution monthly, for at least nine months. The color resulting during the sixth month in the fresh saline solution is a light blue. If the process is continued for an additional 3 months or up to a total of 9 months, the resulting fresh saline solution is light blue in color, but the release of the dye continues.

[2] = Total methylene blue loaded onto and released from polycarbonate discs and catheters, desorbed in MeOH (0.1% TFA), UV 662 nm
Method: An experiment was performed in order to determine the total amount of methylene blue that was loaded onto a polycarbonate disc in comparison to a polycarbonate catheter. The discs were 1.27 cm or 0.5 inches in diameter and included a surface area of 2.53 cm^2 and a thickness of 0.60 mm. The catheter pieces were 1″ long and included a surface area of 4.64 cm^2 and a thickness of 0.51 mm. A 160 ml solution of 0.24 M sodium citrate was prepared into which 0.1% or […] of methylene blue was added. Then, 2%, or 3.2 g of ascorbic acid, was added to the solution and mixed for 1-2 minutes and 10 ml of the solution was placed into 25 ml flasks. The discs and catheter pieces were rinsed and placed into the 25 ml flasks of solution and placed on a shaker at 220 rpm at 37° C. for three hours. The catheter pieces and discs were removed, rinsed with distilled water, and dried. The catheter pieces and discs were desorbed in 20 ml of MeOH (w/0.1% TFA) and placed on the shaker until the membranes appeared whitish in color. Appropriate dilutions were made and the UV absorbance was measured at 662 nm. The methylene blue concentration was calculated based on a standard curve generated in a similar manner. The results are set forth below in Table 4 and 5.

[3] = Perfusion of parabens and methylene blue through polycarbonate membrane in perfusion chamber (HPLC of lower chamber); conditions: for perfusion of methylene blue through membrane without activation: only 1,2-propanediol solution, absence of Citrate and activation by AA, after 4.5 days (Treatments 1 and 2)
Method: An experiment was performed to determine a method for perfusing methylene blue, methyl paraben, and propyl paraben through a polycarbonate membrane with causing only minimal changes to the strength and elasticity of the membrane. In FIG. 12, there is illustrated a perfusion chamber system 50 used during the experiment. System 50 includes an upper chamber 51 and a lower chamber 52 separated by a polycarbonate membrane 53 having a thickness of 0.60 mm. The upper and lower chambers 51, 52 are generally structured to hold 10.5 cm^3 or 10.5 ml of fluid. The upper chamber 51 was connected to a peristaltic pump (not shown) and the lower chamber 52 was filled with distilled water. First and second solutions, respectively including the parabens and the methylene blue, were prepared in accordance with the method set forth in EXAMPLE 6 above. As best seen in Tables 6 and 7 below, the solutions were connected to the pump and passed through the first chamber 51 at a constant rate at 37° C. over various lengths of time.
Table 6 includes data obtained from HPLC analysis comparing the methyl paraben, propyl paraben, and methylene blue concentrations in the lower chamber 52. The parameters for the methyl and propyl paraben and methylene blue treatments are indicated in the left hand columns.

[4] = Desorption of methylene blue from impregnated catheter pieces in 0.9% saline (HPLC)
Method: In another form of the present application, one inch polycarbonate catheter pieces including a surface area of about 4.64 cm^2 were impregnated with methylene blue. A solution of 0.24 M sodium citrate buffer pH 4.5 was prepared with 100 mg % methylene blue activated by 2% L-ascorbic acid immediately beforehand. Catheter pieces were placed in flasks containing the solution and the flasks were placed on a shaker at 220 rpm and 27° C. for 3 hours.
Desorption analysis of the methylene blue impregnated catheter pieces was performed in a 0.9% solution of saline. The total amount of methylene blue released from the catheter pieces was calculated using HPLC analysis performed with a Waters Alliance 2690 including a 996 Photodiode Array Detector according to conditions in Example 4. The results of the HPLC analysis corresponding to the desorption of methylene blue from the methylene blue impregnated polymeric material are set forth in the graph of FIG. 10.
One inch polycarbonate catheter pieces including a surface area of about 4.64 cm^2 were impregnated with methyl paraben and propyl paraben. A solution of 100% 1,2-propanediol was prepared with 9% methyl paraben and 2% propyl paraben. Pairs of the one inch catheter pieces were placed into three 25 ml flasks including 10 ml of parabens solution. The flasks were placed on a shaker at 220 rpm and 27° C. for two, four, or nine hours. At the end of each time period, the catheter pieces were removed, rinsed with distilled water, and dried.
The catheter pieces were then impregnated with methylene blue. A solution of 0.24 M sodium citrate buffer with a pH of 4.5 was prepared with 100 mg % methylene blue activated by 2% L-ascorbic acid immediately beforehand. Catheter pieces were placed in flasks containing the solution and the flasks were placed on a shaker at 220 rpm and 27° C. for 3 hours. Desorption analysis of the parabens and methylene blue impregnated catheter pieces was performed in a 0.9% solution of saline according to the method described earlier.

[5] = No Parabens, MB treatment 3 hrs 0.24 M Citrate buffer, 4.5 pH
[6] = paraben treatment 2 hrs- 100% PG, 9% MP, 2% PP, MB treatment 3 hrs
[7] = paraben treatment 4 hrs- 100% PG, 9% MP, 2% PP, MB treatment 3 hrs
[8] = paraben treatment 9 hrs- 100% PG, 9% MP, 2% PP, MB treatment 3 hrs
[9] = flat polycarbonate disc (discs 1-4), NO Parabens, MB treatment 3 hrs 0.24M Citrate Buffer, 4.5 pH, 100 mg % MB, 2% AA

**Q.** Which “duration of release of the dye from treated catheter” value [1] does the source give for `CN(C)c1ccc2nc3ccc(=[N+](C)C)cc-3sc2c1` [MB, methylene blue] here?
**A.** ≥ 9 months

**Q.** And the “factor by which flat discs exceed catheters in total sorption and desorption of methylene blue per cm^2” value ([2]; Tables 4 and 5, no parabens)?
**A.** ~6.8

**Q.** What about the “Average ug/cm^2 MB released” value ([2]; average of flat discs 1-4, NO Parabens, MB treatment 3 hrs) of the same molecule?
**A.** 1942.8 ug/cm^2

**Q.** And the “% MB released from catheter in saline desorption/total released in MeOH (0.1% TFA)” value [2, 5]?
**A.** 58.8%

**Q.** And the “mg released based on 1″ of catheter” value [2, 5]?
**A.** 1.32 mg

**Q.** What about the “mg released per cm^2 of catheter” value [2, 5] of the same molecule?
**A.** 0.284 mg per cm^2

**Q.** What about the “ug released per cm^2 of catheter” value [2, 5] of the same molecule?
**A.** 284.5 ug per cm^2

**Q.** And the “% MB released from catheter in saline desorption/total released in MeOH (0.1% TFA)” value [2, 6]?
**A.** 73.2%

**Q.** And the “mg released based on 1″ of catheter” value [2, 6]?
**A.** 1.65 mg

**Q.** What about the “mg released per cm^2 of catheter” value [2, 6] of the same molecule?
**A.** 0.356 mg per cm^2

**Q.** What about the “ug released per cm^2 of catheter” value [2, 6] of the same molecule?
**A.** 356.3 ug per cm^2

**Q.** What about the “% MB released from catheter in saline desorption/total released in MeOH (0.1% TFA)” value [2, 7] of the same molecule?
**A.** 65.5%

**Q.** What about the “mg released based on 1″ of catheter” value [2, 7] of the same molecule?
**A.** 1.71 mg

**Q.** And the “mg released per cm^2 of catheter” value [2, 7]?
**A.** 0.368 mg per cm^2

**Q.** And the “ug released per cm^2 of catheter” value [2, 7]?
**A.** 368.5 ug per cm^2

**Q.** And the “% MB released from catheter in saline desorption/total released in MeOH (0.1% TFA)” value [2, 8]?
**A.** 76.4%

**Q.** And the “mg released based on 1″ of catheter” value [2, 8]?
**A.** 1.78 mg

**Q.** What about the “mg released per cm^2 of catheter” value [2, 8] of the same molecule?
**A.** 0.384 mg per cm^2

**Q.** And the “ug released per cm^2 of catheter” value [2, 8]?
**A.** 383.6 ug per cm^2

**Q.** What about the “Amt MB (mg) released per square cm (mg/2.53 cm^2) on disc” value [2, 9] of the same molecule?
**A.** 1.95 mg per square cm and 1.92 mg per square cm and 1.93 mg per square cm and 1.96 mg per square cm

**Q.** What about the “Average amount (mg) released per disc” value [2, 9] of the same molecule?
**A.** 4.94 mg and 4.87 mg and 4.88 mg and 4.97 mg

**Q.** And the “ug/cm^2 MB released, flat disc” value [2, 9]?
**A.** 1954.1 ug/cm^2 and 1923.6 ug/cm^2 and 1929.0 ug/cm^2 and 1964.3 ug/cm^2

**Q.** And the “time to perfuse through the membrane” value ([3]; activated MB solution (citrate, AA), 0.60 mm polycarbonate membrane)?
**A.** ~10 days

**Q.** What about the “concentration of methylene blue in lower chamber, in words” value ([3]; after 10 days of flow by activated solution) of the same molecule?
**A.** not significant

**Q.** What about the “Total mg MB in 10.5 mL lower chamber” value ([3]; lower chamber, parabens ~9 hrs at 37 C., then activated MB sol'n ~10 days) of the same molecule?
**A.** 0.0105 mg

**Q.** And the “MB conc” value ([3]; lower chamber, parabens ~9 hrs at 37 C., then activated MB sol'n ~10 days, changed every 1 day)?
**A.** 0.001 mg/mL

**Q.** And the “perfusion of methylene blue through membrane without activation” value ([3]; listed as Methylene blue)?
**A.** would not perfuse

**Q.** What about the “perfusion of methylene blue through membrane without activation” value ([3]; listed as methylene blue) of the same molecule?
**A.** minimal

**Q.** What about the “period of significant release of methylene blue” value ([4]; catheters preincubated with parabens, 0.9% saline) of the same molecule?
**A.** 10 days

**Q.** And the “methylene blue release at the conclusion of the 81st day” value ([4]; catheters pretreated with parabens, 0.9% saline (FIG. 11))?
**A.** a small amount of methylene blue still being released

**Q.** What about the “methylene blue release during the last 20 days of the experiment” value ([4]; catheters treated only with methylene blue, 0.9% saline (FIG. 10)) of the same molecule?
**A.** negligible release
